# Laboratory results reported in patent US6358885B1, “Substituted phenylheterocyclic herbicides” (Mississippi State University, priority 1992, dated 2002).
# How the values were obtained:
# barley [1] = assay: Test B preemergence/postemergence greenhouse plant response rating 0 to 10; assay type: in vivo, Hordeum vulgare; conditions: for Plant response rating, Barley: 0 to 10 scale
# How it was run: (§1)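 Test chemicals were sprayed onto freshly planted seed and, concurrently, onto young plants between the one and four leaf stage. After a twelve- to sixteen-day greenhouse period, each species was visually compared with untreated controls.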
# pigweed = assay: Test C preemergence/postemergence greenhouse plant response rating 0 to 100; assay type: in vivo, Amaranthusretroflexus; conditions: for Plant response rating Pigweed: 0 to 100 scale
# How it was run: (§2)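 Compounds in non-phytotoxic solvent went onto sandy loam before emergence (seeded one day earlier) or onto plants at the one-to-four leaf stage. Duck salad was treated via flood water (~2.5 cm, maintained) over silt loam.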
# ryegrass = assay: as above; assay type: in vivo, Lolium multiflorum; conditions: for Plant response rating Ryegrass: 0 to 100 scale
# How it was run: as §2
# soybean [2] = assay: Test B preemergence/postemergence greenhouse plant response rating 0 to 10; assay type: in vivo, Glycine max; conditions: for Plant response rating, Soybean: 0 to 10 scale
# How it was run: as §1
# sugar beet = assay: as above; assay type: in vivo, Beta vulgaris; conditions: for Plant response rating, Sugar beet: 0 to 10 scale
# How it was run: as §1
# rape = assay: Test C preemergence/postemergence greenhouse plant response rating 0 to 100; assay type: in vivo, Brassica napus; conditions: for Plant response rating, Rape: 0 to 100 scale
# How it was run: as §2
# umbrella sedge = assay: Test C flood test plant response rating 0 to 100; assay type: in vivo, Cyperus difformis; conditions: for Plant response rating Umbrella sedge: flood test species listed under POSTEMERGENCE, 0 to 100 scale
# How it was run: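 Compounds in non-phytotoxic solvent applied preemergence to sandy loam one day after planting, postemergence at the 1–4 leaf stage, or to ~2.5 cm floodwater over silt loam.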
# cocklebur = assay: Test B preemergence/postemergence greenhouse plant response rating 0 to 10; assay type: in vivo, Xanthium pensylvanicum; conditions: for Plant response rating, Cocklebur: 0 to 10 scale
# How it was run: as §1
# barley [3] = assay: Test C preemergence/postemergence greenhouse plant response rating 0 to 100; assay type: in vivo, Hordeum vulgare; conditions: for Plant response rating Barley Igri: 0 to 100 scale
# How it was run: as §2
# wild buckwheat = assay: Test B preemergence/postemergence greenhouse plant response rating 0 to 10; assay type: in vivo, Polygonum convolvulus; conditions: for Plant response rating, Wild buckwheat: 0 to 10 scale
# How it was run: as §1
# chickweed [4] = assay: as above; assay type: in vivo, Stellaria media; conditions: PREEMERGENCE
# How it was run: as §1
# blackgrass = assay: Test C preemergence/postemergence greenhouse plant response rating 0 to 100; assay type: in vivo, Alopecurus myosuroides; conditions: for Plant response rating, Blackgrass: 0 to 100 scale
# How it was run: as §2
# velvetleaf = assay: Test B preemergence/postemergence greenhouse plant response rating 0 to 10; assay type: in vivo, Abutilon theophrasti; conditions: for Plant response rating, Velvetleaf: 0 to 10 scale
# How it was run: as §1
# morningglory = assay: as above; assay type: in vivo, Ipomoea hederacea; conditions: for Plant response rating, Morningglory: 0 to 10 scale
# How it was run: as §1
# sorghum = assay: as above; assay type: in vivo, Sorghum bicolor; conditions: for Plant response rating, Sorghum: 0 to 10 scale
# How it was run: as §1
# soybean [5] = assay: Test C preemergence/postemergence greenhouse plant response rating 0 to 100; assay type: in vivo, Glycine max; conditions: for Plant response rating, Soybean: 0 to 100 scale
# How it was run: as §2
# bedstraw = assay: Test B preemergence/postemergence greenhouse plant response rating 0 to 10; assay type: in vivo, Galium aparine; conditions: for Plant response rating, Bedstraw: 0 to 10 scale
# How it was run: as §1
# chickweed [6] = assay: Test C preemergence/postemergence greenhouse plant response rating 0 to 100; assay type: in vivo, Stellaria media; conditions: for Plant response rating, Chickweed: 0 to 100 scale
# How it was run: as §2
structure (smiles),measurement,setting,value
C#CC(C)Oc1cc(-c2nn3c(c2Br)CCCC3)c(F)cc1Cl (stereo not shown) [Compound 66],"Plant response rating, Barley","barley [1]; POSTEMERGENCE, Rate 50 g/ha",5
same,"Plant response rating, Barley","barley [1]; PREEMERGENCE, Rate 50 g/ha",0
same,"Plant response rating (0 to 10 scale), Barley","barley [1]; PREEMERGENCE, Rate 200 g/ha",2
same,"Plant response rating, Barley","barley [1]; Rate 200 g/ha, POSTEMERGENCE",6
same,Plant response rating Pigweed,"pigweed; POSTEMERGENCE, 62 g/ha",100
same,Plant response rating Pigweed,"pigweed; POSTEMERGENCE, 250 g/ha",100
same,"Plant response rating (0 to 100), Pigweed","pigweed; POSTEMERGENCE, Rate 4 g/ha",30
same,Plant response rating Pigweed,"pigweed; PREEMERGENCE, 62 g/ha",100
same,Plant response rating Pigweed,"pigweed; PREEMERGENCE, 250 g/ha",100
same,"Plant response rating (0 to 100), Pigweed","pigweed; PREEMERGENCE, Rate 4 g/ha",0
same,"Plant response rating (0 to 100), Pigweed","pigweed; Rate 16 g/ha, POSTEMERGENCE",100
same,"Plant response rating (0 to 100), Pigweed","pigweed; Rate 16 g/ha, PREEMERGENCE",90
same,Plant response rating Ryegrass,"ryegrass; POSTEMERGENCE, 62 g/ha",50
same,Plant response rating Ryegrass,"ryegrass; POSTEMERGENCE, 250 g/ha",75
same,"Plant response rating (0 to 100), Ryegrass","ryegrass; POSTEMERGENCE, Rate 4 g/ha",10
same,Plant response rating Ryegrass,"ryegrass; PREEMERGENCE, 62 g/ha",50
same,Plant response rating Ryegrass,"ryegrass; PREEMERGENCE, 250 g/ha",70
same,"Plant response rating (0 to 100), Ryegrass","ryegrass; PREEMERGENCE, Rate 4 g/ha",0
same,"Plant response rating (0 to 100), Ryegrass","ryegrass; Rate 16 g/ha, POSTEMERGENCE",30
same,"Plant response rating (0 to 100), Ryegrass","ryegrass; Rate 16 g/ha, PREEMERGENCE",20
same,"Plant response rating, Soybean","soybean [2]; POSTEMERGENCE, Rate 50 g/ha",6
same,"Plant response rating, Soybean","soybean [2]; PREEMERGENCE, Rate 50 g/ha",0
same,"Plant response rating (0 to 10 scale), Soybean","soybean [2]; PREEMERGENCE, Rate 200 g/ha",0
same,"Plant response rating, Soybean","soybean [2]; Rate 200 g/ha, POSTEMERGENCE",8
same,"Plant response rating, Sugar beet","sugar beet; POSTEMERGENCE, Rate 50 g/ha",10
same,"Plant response rating, Sugar beet","sugar beet; PREEMERGENCE, Rate 50 g/ha",8
same,"Plant response rating (0 to 10 scale), Sugar beet","sugar beet; PREEMERGENCE, Rate 200 g/ha",10
same,"Plant response rating, Sugar beet","sugar beet; Rate 200 g/ha, POSTEMERGENCE",10
same,"Plant response rating, Rape","rape; POSTEMERGENCE, 62 g/ha",100
same,"Plant response rating, Rape","rape; POSTEMERGENCE, 250 g/ha",100
same,"Plant response rating (0 to 100), Rape","rape; POSTEMERGENCE, Rate 4 g/ha",40
same,"Plant response rating, Rape","rape; PREEMERGENCE, 62 g/ha",20
same,"Plant response rating, Rape","rape; PREEMERGENCE, 250 g/ha",30
same,"Plant response rating (0 to 100), Rape","rape; PREEMERGENCE, Rate 4 g/ha",0
same,"Plant response rating (0 to 100), Rape","rape; Rate 16 g/ha, POSTEMERGENCE",60
same,"Plant response rating (0 to 100), Rape","rape; Rate 16 g/ha, PREEMERGENCE",0
same,"Plant response rating (0 to 100), Umbrella sedge","umbrella sedge; POSTEMERGENCE section, flood test, Rate 4 g/ha",0
same,"Plant response rating (0 to 100), Umbrella sedge","umbrella sedge; Rate 16 g/ha, under POSTEMERGENCE head (flood test species)",0
same,Plant response rating Umbrella sedge,umbrella sedge; 62 g/ha,0
same,Plant response rating Umbrella sedge,umbrella sedge; 250 g/ha,80
same,"Plant response rating, Cocklebur","cocklebur; POSTEMERGENCE, Rate 50 g/ha",9
same,"Plant response rating, Cocklebur","cocklebur; PREEMERGENCE, Rate 50 g/ha",0
same,"Plant response rating (0 to 10 scale), Cocklebur","cocklebur; PREEMERGENCE, Rate 200 g/ha",0
same,"Plant response rating, Cocklebur","cocklebur; Rate 200 g/ha, POSTEMERGENCE",10
same,Plant response rating Barley Igri,"barley [3]; POSTEMERGENCE, 62 g/ha",50
same,Plant response rating Barley Igri,"barley [3]; POSTEMERGENCE, 250 g/ha",60
same,"Plant response rating (0 to 100), Barley Igri","barley [3]; POSTEMERGENCE, Rate 4 g/ha",30
same,Plant response rating Barley Igri,"barley [3]; PREEMERGENCE, 62 g/ha",0
same,Plant response rating Barley Igri,"barley [3]; PREEMERGENCE, 250 g/ha",20
same,"Plant response rating (0 to 100), Barley Igri","barley [3]; PREEMERGENCE, Rate 4 g/ha",0
same,"Plant response rating (0 to 100), Barley Igri","barley [3]; Rate 16 g/ha, POSTEMERGENCE",30
same,"Plant response rating (0 to 100), Barley Igri","barley [3]; Rate 16 g/ha, PREEMERGENCE",0
same,"Plant response rating, Wild buckwheat","wild buckwheat; POSTEMERGENCE, Rate 50 g/ha",10
same,"Plant response rating, Wild buckwheat","wild buckwheat; PREEMERGENCE, Rate 50 g/ha",4
same,"Plant response rating (0 to 10 scale), Wild buckwheat","wild buckwheat; PREEMERGENCE, Rate 200 g/ha",10
same,"Plant response rating, Wild buckwheat","wild buckwheat; Rate 200 g/ha, POSTEMERGENCE",10
same,"Plant response rating, Chickweed","chickweed [4]; Rate 50 g/ha, 0 to 10 scale",4
same,"Plant response rating (0 to 10 scale), Chickweed",chickweed [4]; Rate 200 g/ha,5
same,"Plant response rating, Blackgrass","blackgrass; POSTEMERGENCE, 62 g/ha",60
same,"Plant response rating, Blackgrass","blackgrass; POSTEMERGENCE, 250 g/ha",80
same,"Plant response rating (0 to 100), Blackgrass","blackgrass; POSTEMERGENCE, Rate 4 g/ha",20
same,"Plant response rating, Blackgrass","blackgrass; PREEMERGENCE, 62 g/ha",70
same,"Plant response rating, Blackgrass","blackgrass; PREEMERGENCE, 250 g/ha",70
same,"Plant response rating (0 to 100), Blackgrass","blackgrass; PREEMERGENCE, Rate 4 g/ha",0
same,"Plant response rating (0 to 100), Blackgrass","blackgrass; Rate 16 g/ha, POSTEMERGENCE",40
same,"Plant response rating (0 to 100), Blackgrass","blackgrass; Rate 16 g/ha, PREEMERGENCE",20
same,"Plant response rating, Velvetleaf","velvetleaf; POSTEMERGENCE, Rate 50 g/ha",10
same,"Plant response rating, Velvetleaf","velvetleaf; PREEMERGENCE, Rate 50 g/ha",6
same,"Plant response rating (0 to 10 scale), Velvetleaf","velvetleaf; PREEMERGENCE, Rate 200 g/ha",9
same,"Plant response rating, Velvetleaf","velvetleaf; Rate 200 g/ha, POSTEMERGENCE",10
same,"Plant response rating, Morningglory","morningglory; POSTEMERGENCE, Rate 50 g/ha",10
same,"Plant response rating, Morningglory","morningglory; PREEMERGENCE, Rate 50 g/ha",0
same,"Plant response rating (0 to 10 scale), Morningglory","morningglory; PREEMERGENCE, Rate 200 g/ha",2
same,"Plant response rating, Morningglory","morningglory; Rate 200 g/ha, POSTEMERGENCE",10
same,"Plant response rating, Sorghum","sorghum; POSTEMERGENCE, Rate 50 g/ha",5
same,"Plant response rating, Sorghum","sorghum; PREEMERGENCE, Rate 50 g/ha",0
same,"Plant response rating (0 to 10 scale), Sorghum","sorghum; PREEMERGENCE, Rate 200 g/ha",0
same,"Plant response rating, Sorghum","sorghum; Rate 200 g/ha, POSTEMERGENCE",7
same,"Plant response rating, Soybean","soybean [5]; POSTEMERGENCE, 62 g/ha",60
same,"Plant response rating, Soybean","soybean [5]; POSTEMERGENCE, 250 g/ha",70
same,"Plant response rating (0 to 100), Soybean","soybean [5]; POSTEMERGENCE, Rate 4 g/ha",20
same,"Plant response rating, Soybean","soybean [5]; PREEMERGENCE, 250 g/ha",20
same,"Plant response rating (0 to 100), Soybean","soybean [5]; PREEMERGENCE, Rate 4 g/ha",0
same,"Plant response rating (0 to 100), Soybean","soybean [5]; Rate 16 g/ha, POSTEMERGENCE",50
same,"Plant response rating (0 to 100), Soybean","soybean [5]; Rate 16 g/ha, PREEMERGENCE",0
same,"Plant response rating, Bedstraw","bedstraw; POSTEMERGENCE, Rate 50 g/ha",10
same,"Plant response rating, Bedstraw","bedstraw; PREEMERGENCE, Rate 50 g/ha",9
same,"Plant response rating (0 to 10 scale), Bedstraw","bedstraw; PREEMERGENCE, Rate 200 g/ha",10
same,"Plant response rating, Bedstraw","bedstraw; Rate 200 g/ha, POSTEMERGENCE",10
same,"Plant response rating, Chickweed","chickweed [6]; POSTEMERGENCE, 62 g/ha",95
same,"Plant response rating, Chickweed","chickweed [6]; POSTEMERGENCE, 250 g/ha",100
same,"Plant response rating (0 to 100), Chickweed","chickweed [6]; POSTEMERGENCE, Rate 4 g/ha",30
same,"Plant response rating, Chickweed","chickweed [6]; PREEMERGENCE, 62 g/ha",50
same,"Plant response rating, Chickweed","chickweed [6]; PREEMERGENCE, 250 g/ha",80
same,"Plant response rating (0 to 100), Chickweed","chickweed [6]; PREEMERGENCE, Rate 4 g/ha",0
same,"Plant response rating (0 to 100), Chickweed","chickweed [6]; Rate 16 g/ha, POSTEMERGENCE",70
same,"Plant response rating (0 to 100), Chickweed","chickweed [6]; Rate 16 g/ha, PREEMERGENCE",0
